According to patent publication US9149038B2, “4-amino-6-(heterocyclic)picolinates and 6-amino-2-(heterocyclic)pyrimidine-4-carboxylates and their use as herbicides” (Dow AgroSciences LLC, priority 2013, dated 2015):
Where two headings read alike, the source gives them in different places.

Experiments:
[1] = test system: Key Broadleaf Weed and Crop Species; assay: Post-Emergent Test II: postemergent herbicidal activity, visual rating after 14 d (Table 7); type: in vivo; conditions: post-emergence, 336 h; for pest or weed control at 35 g/ha: 35 g ai/ha; for pest or weed control at 70 g/ha: 70 g ai/ha; for pest or weed control at 140 g/ha: 140 g ai/ha
In short: (§1)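 Visual scoring at 14 d, 0 (no injury) to 100 (complete kill), relative to untreated plants. Postemergent overhead track-sprayer application, 187 L/ha, at a top rate plus serial ½×–1/16× rates, to plants grown 7–21 d at about 23–29° C day under a 15 h photoperiod, then subirrigated.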

[2] = test system: Key Grass and Sedge Weeds as well as Grass Crops; assay: Post-Emergent Test II: postemergent herbicidal activity, visual rating after 14 d (Table 8); type: in vivo; conditions: post-emergence, 336 h; for pest or weed control at 35 g/ha: 35 g ai/ha; for pest or weed control at 70 g/ha: 70 g ai/ha; for pest or weed control at 140 g/ha: 140 g ai/ha
In short: as §1

[3] = lambsquarters (Chenopodium album), read-out: Visual Growth Reduction (%) 14 Days After Application CHEAL
[4] = oilseed rape, canola (Brassica napus), read-out: Visual Growth Reduction (%) 14 Days After Application BRSNN
[5] = redroot pigweed (Amaranthus retroflexus), read-out: Visual Growth Reduction (%) 14 Days After Application AMARE
[6] = sunflower (Helianthus annuus), read-out: Visual Growth Reduction (%) 14 Days After Application HELAN
[7] = velvetleaf (Abutilon theophrasti), read-out: Visual Growth Reduction (%) 14 Days After Application ABUTH
[8] = wild poinsettia (Euphorbia heterophylla), read-out: Visual Growth Reduction (%) 14 Days After Application EPHHL
[9] = barnyardgrass (Echinochloa crus-galli), read-out: Visual Growth Reduction (%) 14 Days After Application ECHCG
[10] = giant foxtail (Setaria faberi), read-out: Visual Growth Reduction (%) 14 Days After Application SETFA
[11] = maize, corn (Zea mays), read-out: Visual Growth Reduction (%) 14 Days After Application ZEAMX
[12] = rice (Oryza sativa), read-out: Visual Growth Reduction (%) 14 Days After Application ORYSA
[13] = wheat, spring (Triticum aestivum), read-out: Visual Growth Reduction (%) 14 Days After Application TRZAS
[14] = yellow nutsedge (Cyperus esculentus), read-out: Visual Growth Reduction (%) 14 Days After Application CYPES

| Compound | pest or weed control at 35 g/ha [1, 3] [%] | pest or weed control at 70 g/ha [1, 3] [%] | pest or weed control at 140 g/ha [1, 3] [%] | pest or weed control at 35 g/ha [1, 4] [%] | pest or weed control at 70 g/ha [1, 4] [%] | pest or weed control at 140 g/ha [1, 4] [%] | pest or weed control at 35 g/ha [1, 5] [%] | pest or weed control at 70 g/ha [1, 5] [%] | pest or weed control at 140 g/ha [1, 5] [%] | pest or weed control at 35 g/ha [1, 6] [%] | pest or weed control at 70 g/ha [1, 6] [%] | pest or weed control at 140 g/ha [1, 6] [%] | pest or weed control at 35 g/ha [1, 7] [%] | pest or weed control at 70 g/ha [1, 7] [%] | pest or weed control at 140 g/ha [1, 7] [%] | pest or weed control at 35 g/ha [1, 8] [%] | pest or weed control at 70 g/ha [1, 8] [%] | pest or weed control at 140 g/ha [1, 8] [%] | pest or weed control at 35 g/ha [2, 9] [%] | pest or weed control at 70 g/ha [2, 9] [%] | also measured |
| --- | --- | --- | --- | --- | --- | --- | --- | --- | --- | --- | --- | --- | --- | --- | --- | --- | --- | --- | --- | --- | --- |
| Nc1c(F)c(-c2ccc3c(c2)OC(F)(F)O3)nc(C(=O)O)c1Cl [Compound 7] | 95 to 100 | 95 to 100 | 95 to 100 | 85 to 94 | 85 to 94 | 95 to 100 | 75 to 84 | 95 to 100 | 95 to 100 | 95 to 100 | 95 to 100 | 95 to 100 | 85 to 94 | 85 to 94 | 95 to 100 | 95 to 100 | 95 to 100 | 95 to 100 | 95 to 100 | 95 to 100 | pest or weed control at 140 g/ha [2, 9]: 95 to 100%; pest or weed control at 35 g/ha [2, 10]: 95 to 100%; pest or weed control at 70 g/ha [2, 10]: 95 to 100%; pest or weed control at 140 g/ha [2, 10]: 95 to 100%; pest or weed control at 35 g/ha [2, 11]: 95 to 100%; pest or weed control at 70 g/ha [2, 11]: 95 to 100%; pest or weed control at 140 g/ha [2, 11]: 95 to 100%; pest or weed control at 35 g/ha [2, 12]: 30 to 44%; pest or weed control at 70 g/ha [2, 12]: 30 to 44%; pest or weed control at 140 g/ha [2, 12]: 60 to 74%; pest or weed control at 35 g/ha [2, 13]: 45 to 59%; pest or weed control at 70 g/ha [2, 13]: 60 to 74%; pest or weed control at 140 g/ha [2, 13]: 60 to 74%; pest or weed control at 35 g/ha [2, 14]: 95 to 100%; pest or weed control at 70 g/ha [2, 14]: 95 to 100%; pest or weed control at 140 g/ha [2, 14]: 95 to 100% |
| COC(=O)c1nc(-c2ccc3c(c2)OC(C)(C)O3)c(F)c(N)c1Cl [Compound 8] | 45 to 59 | 75 to 84 | 85 to 94 | 60 to 74 | 60 to 74 | 75 to 84 | 0 to 29 | 45 to 59 | 60 to 74 | 0 to 29 | 45 to 59 | 85 to 94 | 95 to 100 | 95 to 100 | 95 to 100 | 95 to 100 | 95 to 100 | 95 to 100 | 95 to 100 | 95 to 100 | pest or weed control at 140 g/ha [2, 9]: 95 to 100%; pest or weed control at 35 g/ha [2, 10]: 85 to 94%; pest or weed control at 70 g/ha [2, 10]: 95 to 100%; pest or weed control at 140 g/ha [2, 10]: 95 to 100%; pest or weed control at 35 g/ha [2, 11]: 95 to 100%; pest or weed control at 70 g/ha [2, 11]: 95 to 100%; pest or weed control at 140 g/ha [2, 11]: 95 to 100%; pest or weed control at 35 g/ha [2, 12]: 0 to 29%; pest or weed control at 70 g/ha [2, 12]: 0 to 29%; pest or weed control at 140 g/ha [2, 12]: 30 to 44%; pest or weed control at 35 g/ha [2, 13]: 0 to 29%; pest or weed control at 70 g/ha [2, 13]: 30 to 44%; pest or weed control at 140 g/ha [2, 13]: 30 to 44%; pest or weed control at 35 g/ha [2, 14]: 95 to 100%; pest or weed control at 70 g/ha [2, 14]: 95 to 100%; pest or weed control at 140 g/ha [2, 14]: 95 to 100% |
